In patent US10829527B2, “Conjugates of islet neogenesis peptides and analogs, and methods thereof” (SHENZHEN HIGHTIDE BIOPHARMACEUTICAL, LTD., priority 2016, dated 2020):

Legend:
pancreatic islets = experiment: Glucose-stimulated insulin secretion (GSIS) of isolated islets; type: cell-based, C57BL/6J mice; details: for Insulin Secretion: 16.7 mM glucose + 10 nM peptide, groups of 5 islets, 60 min incubation; for Insulin release compared with islets cultured without the addition of peptides: 16.7 mM glucose, 10 nM peptide, result in words
Description: The pancreases were procured from male adult C57BL/6J mice. After 7 days acclimation, the animals were sacrificed by cervical dislocation and the entire pancreas was removed and digested with collagenase to isolate islets. After digestion, islets were maintained at 37° C. in RPMI 1640 (Carlsbad Calif., USA) pH 7.4, containing 10% (v/v) fetal calf serum, 1% penicillin/streptomycin, and 10 mM glucose in a humid atmosphere (5% CO2/95% O2), without the addition of any compound (control), or with the addition of 10 nM glucagon like peptide-1 (GLP-1); or 10 nM INGAP-PP; or 10 nM Peptide 1, Peptide 2 or Peptide 3, as summarized in Table 5 below.
Cultured islets were rinsed in Krebs-Ringer bicarbonate buffer (KRB), pH 7.4, previously gassed with a mixture of CO2/O2 (5/95%), and pre-incubated in 1.0 mL of KRB containing 0.5% (w/v) BSA and 2.8 mM glucose at 37° C. for 45 min. After this period, groups of 5 islets were incubated in 0.6 mL KRB with the addition of 2.8 or 16.7 mM glucose, with or without the addition of peptides for 60 min. At the end of the incubation period, aliquots of the medium were collected for insulin quantitation.

[1] = tested on: STZ induced diabetic mice; experiment: Blood glucose in streptozotocin (STZ) induced diabetic mice model; type: in vivo, C57BL/6J mice; details: 250 nM/kg, day 8 of treatment
Description: (§1) After acclimatization in the animal facility for one week, 6-8 weeks old C57BL/6J mice were administered high dose STZ at 150 mg/kg in citrate buffer to establish a T1D animal model. Mice with blood glucose greater than 16.7 mmol/L at 10 days post last STZ injection were included in the study. These mice were then treated with INGAP-PP or GLP-1 or Peptide 2 at the dose of 250 nM/kg for 10 days before sacrifices. One additional group of diabetic mice were administered with saline as model control groups. Blood glucose levels were measured on day 8. Ten days post the last dosing of test agents, an oral glucose tolerance test (OGTT) was performed in 6 hours fasted animals. Blood samples obtained from the tail for glucose determination were detected with an ACCU-CHEK™ glucometer (Roche, ACCU-CHEK® Performa)
(§2) The blood glucose (BG, mM) present were measured on day 8 of treatment. The area under curve (AUC) of glucose (T0˜120 min) measured in an oral glucose tolerance test (OGTT) on day 10 of treatment.

[2] = tested on: STZ induced diabetic mice; experiment: Oral glucose tolerance test (OGTT) in STZ induced diabetic mice model; type: in vivo, C57BL/6J mice; details: 250 nM/kg, glucose AUC T0~120 min, day 10 of treatment, 6 hours fasted
Description: as §1, §2

Substance | Insulin Secretion (pancreatic islets) [ng/islet/hour] | Insulin release compared with islets cultured without the addition of peptides (pancreatic islets) | Blood Glucose (Day 8) [1] [mM] | AUC of OGTT (Day 10) [2]
H-IGLHDPSHGTLPNGS-OH (also: D-Isoleucine at 1) [INGAP-PP] | 2.5 ± 1.0 | no stimulation | 25.9 ± 9.1 | 3207.6 ± 801.5
glucagon like peptide-1 [GLP-1] | 5.4 ± 2.1 | significantly more insulin | 22.1 ± 6.8 | 3054.7 ± 728.9
